Reference: US9604975B2, “Indolyl-pyridone derivatives having checkpoint kinase 1 inhibitory activity” (Vernalis (R&D) Ltd., priority 2009, dated 2017)

Columns and labels:
HT29 cells = experiment: CHK1 Cellular Assay - Gemcitabine EC50 Assay; format: cell-based; conditions: for EC50: HT29 cells, in the presence of gemcitabine at 10 nM, 72 hours, SRB staining, read-out: CHK1 Cellular Activity (EC50 range)
Protocol: The gemcitabine EC50 assay was developed as a rapid method for screening CHK1 inhibitors to determine their relative cell activity. This assay utilises a feature of the effect of CHK1 inhibitors on gemcitabine toxicity. In the absence of a CHK1 inhibitor, gemcitabine acts predominantly as an anti-metbolite and therefore induces very little cell death, even at high concentrations. This can be as high as 70-80% survival at concentrations in excess of 1 μM. However, in the presence of a CHK1 inhibitor, the mechanism of action of gemcitabine switches to a more classical cytotoxic mode of action. For example, the fraction of cells surviving can be reduced to around 30% and below. Concentrations of gemcitabine can be selected that in the absence of a CHK1 inhibitor, have no effect on cell survival but in the presence of a CHK1 inhibitor are highly cytotoxic. 10000 HT29 cells were plated per well of a 96 well plate and allowed to attach at 37° C. in a 5% CO2 humidified incubator for 18 hours. CHK1 inhibitors were then titrated in the presence of 10, 15 and 20 nM gemcitabine for 72 hours and the EC50 determined by staining with sulforhodamine B (SRB) and determining the absorbance at 540 nm.

CHK1 = molecular target: T1, CHK1 (Homo sapiens, UniProt O14757); experiment: CHK1 Enzyme Assay (phosphorylation of Chktide peptide, 33P-ATP filter assay); format: biochemical; conditions: 12.5 nM His-CHK1, 0.01 mM ATP, 40 minutes at 30° C.; read-out: CHK1 Enzyme Activity (IC50 range)
T1 construct: His; purchased Invitrogen
T1 sequence (O14757 1-476): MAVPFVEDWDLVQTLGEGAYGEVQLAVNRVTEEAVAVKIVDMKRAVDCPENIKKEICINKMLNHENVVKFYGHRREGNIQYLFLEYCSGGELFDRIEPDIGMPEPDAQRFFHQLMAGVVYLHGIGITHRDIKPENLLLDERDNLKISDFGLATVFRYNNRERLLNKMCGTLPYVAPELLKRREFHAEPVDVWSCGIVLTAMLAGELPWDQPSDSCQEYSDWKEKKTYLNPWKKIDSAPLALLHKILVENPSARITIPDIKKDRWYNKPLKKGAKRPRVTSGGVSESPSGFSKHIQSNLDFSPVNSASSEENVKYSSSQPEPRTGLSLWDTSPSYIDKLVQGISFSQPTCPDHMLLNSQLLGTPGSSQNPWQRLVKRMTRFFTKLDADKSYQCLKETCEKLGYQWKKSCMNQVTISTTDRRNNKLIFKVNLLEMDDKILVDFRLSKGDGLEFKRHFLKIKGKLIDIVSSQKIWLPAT
Procedure, shortened: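 Filter-binding radiometric readout of 33P incorporation into Chktide (14.8 μM), after a 40 min, 30 °C reaction at pH 7.5 (50 mM Hepes-NaOH, 0.1 mg/mL BSA). The reaction contained 12.5 nM His-tagged CHK1, inhibitor and 0.01 mM cold ATP plus labelled ATP.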

Row | EC50 (HT29 cells) [nM] | IC50 (CHK1) [nM] | SMILES | survival (HT29 cells; gemcitabine in the absence of a CHK1 inhibitor, concentrations in excess of 1 μM)
1 | 100 to 500 | < 100 | O=C(Nc1c[nH]c(=O)c(-c2cc3ccccc3[nH]2)c1)c1cnn(Cc2ccccc2)c1 [Example 20, 1-Benzyl-1H-pyrazole-4-carboxylic acid [5-(1H-indol-2-yl)-6-oxo-1,6-dihydro-pyridin-3-yl]-amide] | –
2 | 100 to 500 | < 100 | Cc1ccc(Cn2cc(C(=O)Nc3c[nH]c(=O)c(-c4cc5cc(CN6CCCCC6)ccc5[nH]4)c3)cn2)cc1 [Example 38, 1-(4-Methyl-benzyl)-1H-pyrazole-4-carboxylic acid [6-oxo-5-(5-piperidin-1-ylmethyl-1H-indol-2-yl)-1,6-dihydro-pyridin-3-yl]-amide] | –
3 | < 100 | < 100 | O=C(Nc1c[nH]c(=O)c(-c2cc3cc(CN4CCC(F)CC4)ccc3[nH]2)c1)c1cnn(Cc2ccccc2)c1 [Example 49, 1-Benzyl-1H-pyrazole-4-carboxylic acid {3-[5-(4-fluoro-piperidin-1-ylmethyl)-1H-indol-2-yl]-6-oxo-1,6-dihydro-pyridin-3-yl}-amide] | –
4 | < 100 | < 100 | O=C(Nc1c[nH]c(=O)c(-c2cc3cc(CN4CCCCC4)ccc3[nH]2)c1)c1cnn(Cc2ccccc2)c1 [Example 52, 1-Benzyl-1H-pyrazole-4-carboxylic acid [6-oxo-5-(5-piperidin-1-ylmethyl-1H-indol-2-yl)-1,6-dihydro-pyridin-3-yl]-amide] | –
5 | < 100 | < 100 | C[C@@H]1CN(Cc2ccc3[nH]c(-c4cc(NC(=O)c5cnn(Cc6ccccc6)c5)c[nH]c4=O)cc3c2)C[C@H](C)O1 [Example 71, 1-Benzyl-1H-pyrazole-4-carboxylic acid {5-[5-(cis-2,6-dimethyl-morpholin-4-ylmethyl)-1H-indol-2-yl]-6-oxo-1,6-dihydro-pyridin-3-yl}-amide] | –
6 | < 100 | < 100 | CC1CCN(Cc2ccc3[nH]c(-c4cc(NC(=O)c5cnn(Cc6ccccc6)c5)c[nH]c4=O)cc3c2)CC1 [Example 78, 1-Benzyl-1H-pyrazole-4-carboxylic acid {5-[5-(4-methyl-piperidin-1-ylmethyl)-1H-indol-2-yl]-6-oxo-1,6-dihydro-pyridin-3-yl}-amide] | –
7 | < 100 | < 100 | CC(c1ccccc1)n1cc(C(=O)Nc2c[nH]c(=O)c(-c3cc4cc(CN5CCC(F)CC5)ccc4[nH]3)c2)cn1 (stereo not shown) [Example 87, 1-(1-Phenyl-ethyl)-1H-pyrazole-4-carboxylic acid {5-[5-(4-fluoro-piperidin-1-ylmethyl)-1H-indol-2-yl]-6-oxo-1,6-dihydro-pyridin-3-yl}-amide] | –
8 | < 100 | < 100 | CN(C)CC(C)(C)COc1ccc2[nH]c(-c3cc(NC(=O)c4cnn(Cc5ccccc5)c4)c[nH]c3=O)cc2c1 [Example 120, 1-Benzyl-1H-pyrazole-4-carboxylic acid {5-[5-(3-dimethylamino-2,2-dimethyl-propoxy)-1H-indol-2-yl]-6-oxo-1,6-dihydro-pyridin-3-yl}-amide] | –
9 | < 100 | < 100 | C[C@@H]1CN(Cc2ccc3[nH]c(-c4cc(NC(=O)c5cnn([C@H](C)c6ccccc6)c5)c[nH]c4=O)cc3c2)C[C@H](C)O1 [Example 166] | –
10 | – | < 100 | C[C@H](c1ccccc1)n1cc(C(=O)Nc2c[nH]c(=O)c(-c3cc4cc(CN5CCC(F)CC5)ccc4[nH]3)c2)cn1 [Example 169, 1-((R)-1-Phenyl-ethyl)-1H-pyrazole-4-carboxylic acid {5-[5-(4-fluoro-piperidin-1-ylmethyl)-1H-indol-2-yl]-6-oxo-1,6-dihydro-pyridin-3-yl}-amide] | –
11 | – | < 100 | CN(C)CCN(C)Cc1ccc2[nH]c(-c3cc(NC(=O)c4cnn(Cc5ccccc5)c4)c[nH]c3=O)cc2c1 [Example 170, 1-Benzyl-1H-pyrazole-4-carboxylic acid [5-(5-{1(2-dimethylamino-ethyl)-methyl-aminol-methyl}-1H-indol-2-yl)-6-oxo-1,6-dihydro-pyridin-3-yl]-amide] | –
12 | < 100 | < 100 | C[C@H]1CCCCN1Cc1ccc2[nH]c(-c3cc(NC(=O)c4cnn(Cc5ccccc5)c4)c[nH]c3=O)cc2c1 [Example 171, 1-Benzyl-1H-pyrazole-4-carboxylic acid {5-[5-((S)-2-methyl-piperidin-1-ylmethyl)-1H-indol-2-yl]-6-oxo-1,6-dihydro-pyridin-3-yl}-amide] | –
13 | – | < 100 | CN(C)[C@@H]1CCN(Cc2ccc3[nH]c(-c4cc(NC(=O)c5cnn(Cc6ccccc6)c5)c[nH]c4=O)cc3c2)C1 [Example 172, 1-Benzyl-1H-pyrazole-4-carboxylic acid {5-[5-((R)-3-dimethylamino-pyrrolidin-1-ylmethyl)-1H-indol-2-yl]-6-oxo-1,6-dihydro-pyridin-3-yl}-amide] | –
14 | < 100 | < 100 | C[C@@H]1CCCCN1Cc1ccc2[nH]c(-c3cc(NC(=O)c4cnn(Cc5ccccc5)c4)c[nH]c3=O)cc2c1 [Example 173, 1-Benzyl-1H-pyrazole-4-carboxylic acid {5-[5-((R)-2-methyl-piperidin-1-ylmethyl)-1H-indol-2-yl]-6-oxo-1,6-dihydro-pyridin-3-yl}-amide] | –
15 | – | < 100 | O=C(Nc1c[nH]c(=O)c(-c2cc3cc(CN4CC[C@@H](F)C4)ccc3[nH]2)c1)c1cnn(Cc2ccccc2)c1 [Example 174, 1-Benzyl-1H-pyrazole-4-carboxylic acid {5-[5-((R)-3-fluoro-pyrrolidin-1-ylmethyl)-1H-indol-2-yl]-6-oxo-1,6-dihydro-pyridin-3-yl}-amide] | –
16 | – | < 100 | O=C(Nc1c[nH]c(=O)c(-c2cc3cc(CN4CC[C@H](F)C4)ccc3[nH]2)c1)c1cnn(Cc2ccccc2)c1 [Example 175, 1-Benzyl-1H-pyrazole-4-carboxylic acid {5-[5-((S)-3-fluoro-pyrrolidin-1-ylmethyl)-1H-indol-2-yl]-6-oxo-1,6-dihydro-pyridin-3-yl}-amide] | –
17 | – | < 100 | CC(C)(COc1ccc2[nH]c(-c3cc(NC(=O)c4cnn(Cc5ccccc5)c4)c[nH]c3=O)cc2c1)CN1CCC(F)(F)C1 [Example 181, 1-Benzyl-1H-pyrazole-4-carboxylic acid (5-{5-[3-(3,3-difluoro-pyrrolidin-1-yl)-2,2-dimethyl-propoxy]-1H-indol-2-yl}-6-oxo-1,6-dihydro-pyridin-3-yl)-amide] | –
18 | – | < 100 | CC(C)(COc1ccc2[nH]c(-c3cc(NC(=O)c4cnn(Cc5ccccc5)c4)c[nH]c3=O)cc2c1)CN1CC[C@@H](F)C1 [Example 182, 1-Benzyl-1H-pyrazole-4-carboxylic acid (5-{5-[3-((R)-3-fluoro-pyrrolidin-1-yl)-2,2-dimethyl-propoxy]-1H-indol-2-yl}-6-oxo-1,6-dihydro-pyridin-3-yl)-amide] | –
19 | – | < 100 | CC(C)(COc1ccc2[nH]c(-c3cc(NC(=O)c4cnn(Cc5ccccc5)c4)c[nH]c3=O)cc2c1)CN1CC[C@H](F)C1 [Example 183, 1-Benzyl-1H-pyrazole-4-carboxylic acid (5-{5-[3-((S)-3-fluoro-pyrrolidin-1-yl)-2,2-dimethyl-propoxyl]-1H-indol-2-yl}-6-oxo-1,6-dihydro-pyridin-3-yl)-amide] | –
20 | – | < 100 | CC(C)(COc1ccc2[nH]c(-c3cc(NC(=O)c4cnn(Cc5ccccc5)c4)c[nH]c3=O)cc2c1)CN1CCOCC1 [Example 184, 1-Benzyl-1H-pyrazole-4-carboxylic acid {5-[5-(2,2-dimethyl-3-morpholin-4-yl-propoxy)-1H-indol-2-yl]-6-oxo-1,6-dihydro-pyridin-3-yl}-amide] | –
21 | – | < 100 | O=C(Nc1c[nH]c(=O)c(-c2cc3cc(OCC4(CN5CCCC5)CC4)ccc3[nH]2)c1)c1cnn(Cc2ccccc2)c1 [Example 187, 1-Benzyl-1H-pyrazole-4-carboxylic acid {6-oxo 5-[5-(1-pyrrolidin-1-ylmethyl-cyclopropylmethoxy)-1H-indol-2-yl]-1,6-dihydro-pyridin-3-yl}-amide] | –
22 | – | < 100 | CN(C)CC1(COc2ccc3[nH]c(-c4cc(NC(=O)c5cnn(Cc6ccccc6)c5)c[nH]c4=O)cc3c2)CC1 [Example 188, 1-Benzyl-1H-pyrazole-4-carboxylic acid {5-[5-(1-dimethylaminomethyl-cyclopropylmethoxy)-1H-indol-2-yl]-6-oxo-1,6-dihydro-pyridin-3-yl}-amide] | –
23 | – | – | Nc1ccn([C@@H]2O[C@H](CO)[C@@H](O)C2(F)F)c(=O)n1 [gemcitabine, reference compound] | 70-80%
